Laboratory results taken from the NIST ThermoML archive (doi:10.1016/j.tca.2009.10.001).

Test: xn = mol fraction of the nth substance listed
Conditions: 101 kPa, Liquid; for viscosity: Capillary tube (Ostwald / Ubbelohde) method; for speed of sound: Linear variable-path acoustic interferometer; for mass density: Pycnometric method

CCC#N [propanenitrile] + Cc1ccccc1
Conditions | mass density, 298.15 K [kg/m3] | mass density, 303.15 K [kg/m3] | mass density, 308.15 K [kg/m3] | speed of sound, 298.15 K [m/s] | speed of sound, 303.15 K [m/s] | speed of sound, 308.15 K [m/s] | viscosity, 298.15 K [mPa·s] | viscosity, 303.15 K [mPa·s] | viscosity, 308.15 K [mPa·s]
x2 = 0 | 775.4 | 769.9 | 765.2 | 1252.4 | 1232.7 | 1213.7 | 0.4107 | 0.3991 | 0.3822
x2 = 0.0668 | 784.4 | 778.8 | 773.9 | 1257.2 | 1237 | 1217.6 | 0.4222 | 0.4087 | 0.3907
x2 = 0.1397 | 793.6 | 787.9 | 783 | 1262.2 | 1241.7 | 1222 | 0.4346 | 0.4194 | 0.4004
x2 = 0.2164 | 802.6 | 796.8 | 791.9 | 1267.3 | 1246.5 | 1226.7 | 0.4476 | 0.4306 | 0.4106
x2 = 0.3011 | 811.7 | 806 | 801.1 | 1272.9 | 1252 | 1232 | 0.4617 | 0.4432 | 0.422
x2 = 0.3905 | 820.5 | 814.9 | 810.1 | 1278.2 | 1257.1 | 1237.1 | 0.4765 | 0.4561 | 0.4341
x2 = 0.4917 | 829.4 | 823.9 | 819.1 | 1283 | 1262.1 | 1242.1 | 0.4927 | 0.4702 | 0.4475
x2 = 0.5989 | 837.7 | 832.3 | 827.6 | 1287.1 | 1266.2 | 1246.3 | 0.5082 | 0.4842 | 0.4606
x2 = 0.7174 | 845.7 | 840.5 | 835.8 | 1291.2 | 1270.4 | 1250.5 | 0.5247 | 0.4989 | 0.4748
x2 = 0.854 | 853.7 | 848.6 | 844 | 1295.2 | 1274.5 | 1255.2 | 0.5434 | 0.5158 | 0.4911
